Laboratory results as given in ChEMBL document CHEMBL1153122, “Pyrazolone based TGFbetaR1 kinase inhibitors” (Bioorg Med Chem Lett, 2010).

How the values were obtained:
[1] = Half life in rat at 5 mg/kg, po and iv; type: ADME, organism-based; set-up: dose 5 mg/kg, route oral; details: in vivo
Mus musculus = organism: Mus musculus; assay: animal or person; details: BALB/c, po, 1 h, read-out: INH
[2] = Oral bioavailability in rat at 5 mg/kg; type: ADME, organism-based; details: in vivo

half-life [1]: 3 h
bioavailability [2]: 34%
Structure (SMILES): Cn1c(-c2ccc3nccnc3c2)c(-c2cccc(Br)c2)c(=O)n1C
inhibition in vivo at 3 mg/kg (Mus musculus): 43%
